Test results: patent US8026218B2, “Bifunctional analgesic compounds for opioid receptor agonists and neurokinin-1 receptor antagonists” (The University of Arizona, priority 2006, dated 2011)
Read-outs that look alike come from different tables or passages of the source. Peptide text beside a SMILES is read from it.

How the values were obtained:
rat NK1 (rNK1) receptor = target: T1, rat NK1 (rNK1) receptor (Rattus norvegicus, UniProt P14600); assay: Radioligand competition binding, [3H]substance P, rNK1/CHO membranes
T1 construct: expressed in transfected cells; host or cells: CHO (rNK-1/CHO cell line from Dr. James Krause)

[1] = target: T2, human NK1 receptor (hNK1) (Homo sapiens, UniProt P25103); assay: Radioligand competition binding, [3H]-Substance P, hNK1
T2 construct: expressed in transfected cells

[2] = target: T3, Substance P receptors (guinea pig NK1) (Cavia porcellus, UniProt P30547); assay: Guinea pig isolated ileum (GPI) assay with substance P stimulation in presence of 1 μM naloxone
T3 construct: from tissue; host or cells: guinea pig (Hartley) ileum LMMP, 1 μM naloxone present
Procedure: Testing stopped at 1 mM concentrations of the test compound.
Analysis of GPI and MVD assays. For opioid data analysis, percentage inhibition was calculated using the average tissue contraction height for 1 min preceding the addition of the agonist divided by the contraction height 3 min after exposure to the dose of agonist. […] IC50 and Emax estimates were determined by computerized nonlinear least-squares analysis (the pharmacological statistics package FlashCalc: Dr. Michael Ossipov, University of Arizona, Tucson, Ariz.). […] A50 values represent the mean of not less than 4 tissues. A50 and Emax estimates were determined by computerized nonlinear least-squares analysis (FlashCalc).

[3] = target: T4, human δ opioid receptors (hDOR) (Homo sapiens, UniProt P41143); assay: Radioligand competition binding, [3H]DPDPE, hDOR membranes
T4 construct: expressed in transfected cells; host or cells: HN9.10 neuroblastoma cell line, pCDNA3, neomycin-selected clones

[4] = target: T4, human δ opioid receptors (hDOR); assay: [35S]GTP-γ-S binding assay, hDOR; type: biochemical
δ opioid receptors (MVD) = target: T5, δ opioid receptors (MVD) (Mus musculus, UniProt P32300); assay: Mouse isolated vas deferens (MVD) assay, opioid agonist
T5 construct: from tissue; host or cells: mouse (ICR) isolated vas deferens

μ opioid receptors (GPI) = assay: Guinea pig isolated ileum (GPI) assay, opioid agonist; design: GPI/LMMP Opioid(m) Agonist, % inh.: unit of the concentration uncertain;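 further: inhibition of electrically evoked contractions (0.1 Hz, 0.4 msec, supramaximal voltage) in organ baths at 37 °C, contraction height 3 min after each cumulative dose versus the 1 min before dosing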
[5] = target: T6, rat μ opioid receptors (rMOR) (Rattus norvegicus, UniProt P33535); assay: biochemical; type: biochemical; settings: for EC50: read-out: GTP rMOR EC50
T6 construct: expressed in transfected cells; host or cells: HN9.10 neuroblastoma cell line, pCDNA3, neomycin-selected clones

[6] = Substance P antagonist, GPI, Ke, in the presence of 1 μM naloxone
[7] = Table 32, read-out: GTP hDOR EC50
[8] = Table 32, read-out: GTP hDOR EMax
[9] = Table 32, read-out: GTP rMOR EMax
[10] = Table 35, read-out: GPI/LMMP μ-agonist IC50
[11] = GPI/LMMP SP antagonist Ke (nM), Table 35

T1 sequence (P14600 whole entry): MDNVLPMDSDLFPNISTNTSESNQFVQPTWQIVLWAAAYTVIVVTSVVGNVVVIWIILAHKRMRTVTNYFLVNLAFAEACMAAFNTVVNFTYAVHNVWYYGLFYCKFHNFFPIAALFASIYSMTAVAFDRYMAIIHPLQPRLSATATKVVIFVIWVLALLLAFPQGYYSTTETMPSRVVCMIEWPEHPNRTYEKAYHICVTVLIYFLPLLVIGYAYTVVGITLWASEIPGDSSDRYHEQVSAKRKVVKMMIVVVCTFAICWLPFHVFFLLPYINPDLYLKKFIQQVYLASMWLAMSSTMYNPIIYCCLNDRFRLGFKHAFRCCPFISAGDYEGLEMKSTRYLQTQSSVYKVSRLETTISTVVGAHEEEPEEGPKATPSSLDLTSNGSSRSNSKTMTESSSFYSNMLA
T5 sequence (P32300 whole entry): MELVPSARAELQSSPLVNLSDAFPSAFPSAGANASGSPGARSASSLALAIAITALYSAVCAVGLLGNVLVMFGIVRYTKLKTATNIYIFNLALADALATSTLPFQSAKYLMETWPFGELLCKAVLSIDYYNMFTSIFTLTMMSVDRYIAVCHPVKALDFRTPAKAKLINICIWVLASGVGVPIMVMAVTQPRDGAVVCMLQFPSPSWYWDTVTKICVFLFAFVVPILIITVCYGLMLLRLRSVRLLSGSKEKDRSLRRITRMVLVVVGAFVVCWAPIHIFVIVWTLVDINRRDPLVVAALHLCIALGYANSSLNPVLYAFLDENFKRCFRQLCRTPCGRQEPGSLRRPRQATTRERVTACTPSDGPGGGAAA
T2 sequence (P25103 whole entry): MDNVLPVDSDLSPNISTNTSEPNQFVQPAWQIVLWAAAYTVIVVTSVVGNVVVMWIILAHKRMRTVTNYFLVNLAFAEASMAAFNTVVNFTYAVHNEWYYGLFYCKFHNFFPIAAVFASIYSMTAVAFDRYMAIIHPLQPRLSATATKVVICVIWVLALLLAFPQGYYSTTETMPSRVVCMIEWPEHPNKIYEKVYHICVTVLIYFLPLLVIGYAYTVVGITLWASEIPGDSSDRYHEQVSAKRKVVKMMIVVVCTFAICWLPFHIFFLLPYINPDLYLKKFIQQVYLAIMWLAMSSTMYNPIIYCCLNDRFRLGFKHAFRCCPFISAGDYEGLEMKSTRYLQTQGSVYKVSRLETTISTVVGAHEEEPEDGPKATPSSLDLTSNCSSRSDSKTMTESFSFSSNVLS
T3 sequence (P30547 whole entry): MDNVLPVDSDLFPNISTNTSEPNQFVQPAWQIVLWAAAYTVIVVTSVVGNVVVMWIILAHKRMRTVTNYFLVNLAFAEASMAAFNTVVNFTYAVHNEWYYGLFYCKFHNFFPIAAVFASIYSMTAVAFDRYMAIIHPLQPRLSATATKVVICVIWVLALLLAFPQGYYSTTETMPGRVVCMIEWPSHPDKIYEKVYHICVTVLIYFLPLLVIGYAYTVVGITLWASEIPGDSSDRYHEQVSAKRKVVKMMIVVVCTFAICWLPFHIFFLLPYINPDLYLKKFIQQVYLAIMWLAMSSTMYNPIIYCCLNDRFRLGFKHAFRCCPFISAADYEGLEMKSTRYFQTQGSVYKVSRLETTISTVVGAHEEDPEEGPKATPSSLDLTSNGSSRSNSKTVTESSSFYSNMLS
T6 sequence (P33535 whole entry): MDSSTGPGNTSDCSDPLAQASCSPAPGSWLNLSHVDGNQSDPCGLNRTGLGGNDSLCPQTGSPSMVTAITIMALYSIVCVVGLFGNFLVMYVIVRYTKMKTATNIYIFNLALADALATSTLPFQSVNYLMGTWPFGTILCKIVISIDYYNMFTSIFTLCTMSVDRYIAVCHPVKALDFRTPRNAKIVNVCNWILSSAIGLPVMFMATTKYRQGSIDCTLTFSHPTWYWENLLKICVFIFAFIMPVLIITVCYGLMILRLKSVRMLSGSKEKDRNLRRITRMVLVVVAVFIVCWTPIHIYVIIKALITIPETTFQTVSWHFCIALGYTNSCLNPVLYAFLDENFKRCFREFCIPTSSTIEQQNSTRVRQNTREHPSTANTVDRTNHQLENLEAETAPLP
T4 sequence (P41143 whole entry): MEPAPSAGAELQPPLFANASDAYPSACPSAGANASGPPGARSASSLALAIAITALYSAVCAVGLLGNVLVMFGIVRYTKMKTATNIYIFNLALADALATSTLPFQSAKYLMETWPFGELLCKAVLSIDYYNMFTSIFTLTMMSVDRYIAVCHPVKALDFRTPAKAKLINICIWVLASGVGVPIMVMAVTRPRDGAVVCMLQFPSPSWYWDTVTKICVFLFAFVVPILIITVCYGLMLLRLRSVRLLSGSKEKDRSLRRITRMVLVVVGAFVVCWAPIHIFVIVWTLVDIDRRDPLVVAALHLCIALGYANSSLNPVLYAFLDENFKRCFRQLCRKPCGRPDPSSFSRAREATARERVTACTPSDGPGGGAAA

Structure (SMILES): CC(C)C[C@H](NC(=O)[C@@H]1CCCN1C(=O)[C@H](Cc1ccccc1)NC(=O)CNC(=O)[C@@H](C)NC(=O)[C@@H](N)Cc1ccc(O)cc1)C(=O)N[C@@H](Cc1c[nH]c2ccccc12)C(=O)OCc1cc(C(F)(F)F)cc(C(F)(F)F)c1 [TY001, H-Tyr-DAla-Gly-Phe-Pro-Leu-Trp-O-3,5-Bzl(CF3)2]
- Ki (rat NK1 (rNK1) receptor; Affinity rNK1 (Ki; nM), Table 39): 1.56 nM
- IC50 (rat NK1 (rNK1) receptor; LogIC50, rNK1, [3H]Substance P, Table 6, logarithm of IC50 (negative), CHO cell membranes): 5.01 nM
- Ki (rat NK1 (rNK1) receptor; read-out: Ki, rNK1): 1.6 nM
- IC50 [1]: 0.00501 nM
- Ki [1]: 0.0023 nM
- species difference between affinities at rNK1 and hNK1 ([1]; Ki rNK1 vs Ki hNK1): 700 fold
- Kb [2, 6]: 3.6 ± 1.1 nM

Structure (SMILES): CCCC[C@@H](C(=O)N1CCC[C@H]1C(=O)N[C@@H](CC(C)C)C(=O)N[C@@H](Cc1c[nH]c2ccccc12)C(=O)OCc1cc(C(F)(F)F)cc(C(F)(F)F)c1)N(C)C(=O)[C@H](Cc1ccccc1)NC(=O)CNC(=O)[C@@H](C)NC(=O)[C@@H](N)Cc1ccc(O)cc1 [TY019, H-Tyr-D-Ala-Gly-Phe-N-Me-Nle-Pro-Leu-Trp-O-3,5-Bzl(CF3)2]
- LogIC50, hDOR, [3H]DPDPE ([3]; membranes from transfected HN9.10 cells): −6.79 ± 0.13
- IC50 (rat NK1 (rNK1) receptor; IC50, rNK1, Substance P radioligand, membranes from transfected CHO cells): 135 nM
- IC50 (rat NK1 (rNK1) receptor; LogIC50, rNK1, Substance P radioligand, membranes from transfected CHO cells): 112 nM
- LogEC50, hDOR, [35S]GTP-γ-S binding [4]: −6.44 ± 0.27
- EC50 ([4]; read-out: EC50, hDOR, [35S]GTP-γ-S binding): 364 nM
- Emax ([4]; read-out: Emax, hDOR, [35S]GTP-γ-S binding): 316%
- EC50 ([4]; read-out: GTP binding hDOR EC50): 364 nM
- Emax ([4]; read-out: GTP binding hDOR Emax): 283%
- Emax ([4]; read-out: GTP binding hDOR Emax (%)): 283%
- IC50 (δ opioid receptors (MVD); Table 28, read-out: MVD Opioid (d) Agonist (IC50; nM)): 188 nM
- IC50 (δ opioid receptors (MVD); Table 39, read-out: MVD opioid(delta) agonist (IC50; nM)): 188 nM
- IC50 (δ opioid receptors (MVD); electrically stimulated isolated tissue, read-out: MVD (δ), IC50): 188 ± 21 nM
- GPI/LMMP Opioid(m) Agonist, % inh. (μ opioid receptors (GPI); Table 28, at 1 (unit uncertain)): 12% inh. at 1 mM
- GPI/LMMP opioid(mu) agonist, % (μ opioid receptors (GPI); Table 39, concentration not given): 11.90%
- GPI (μ), effect at single concentration (μ opioid receptors (GPI); at 1 μM): 12% at 1 μM^b
- IC50 [2]: 4.6 nM
- Kb [2, 6]: 4.6 ± 1.2 nM
- GPI/LMMP SP Agonist, % inh. ([2]; Table 28): 2% inh. at 1 mM
- GPI/LMMP SP Agonist, % @ 1 uM ([2]; Table 39, @ 1 uM): 1.6%@ 1 uM
- activation at 1 µM ([2]; read-out: Substance P GPI agonist (A50), at 1 μM, contraction relative to initial muscle contraction with KCl): 2%

Structure (SMILES): CC[C@H](NC(=O)[C@H](Cc1ccccc1)NC(=O)CNC(=O)[C@@H](C)NC(=O)[C@@H](N)Cc1ccc(O)cc1)C(=O)N[C@@H](Cc1c[nH]c2ccccc12)C(=O)OCc1cc(C(F)(F)F)cc(C(F)(F)F)c1 [NP33] (HELM PEPTIDE1{Y.[dA].G.F.[Abu].W.[FC(F)(F)c1cc(CO[*:1])cc(C(F)(F)F)c1]}$$$$V2.0; N-terminus assumed)
- Ki [3]: 1.6 nM
- EC50 [4, 7]: 2.9 nM
- Emax [4, 8]: 43%
- EC50 ([5]; Table 32): 8.6 nM
- Emax [5, 9]: 32%
- IC50 (δ opioid receptors (MVD)): 12.4 nM
- IC50 (μ opioid receptors (GPI); [10]): 600 nM
- Kb [2, 11]: 5.6 nM

Structure (SMILES): C[C@@H](NC(=O)[C@@H](N)Cc1ccc(O)cc1)C(=O)NCC(=O)N[C@@H](Cc1ccc(F)cc1)C(=O)OCc1cc(C(F)(F)F)cc(C(F)(F)F)c1 [NP62]
- Ki [1]: 0.2 nM
- IC50 (δ opioid receptors (MVD)): 184 nM
- IC50 (μ opioid receptors (GPI); Table 36, read-out: GPI μ-agonist IC50): 208 nM
- Kb ([2]; GPI SP-antagonist Ke (nM), Table 36): 51.8 nM

Structure (SMILES): CC(C)C[C@H](NC(=O)[C@@H]1CCCN1C(=O)[C@H](Cc1ccccc1)NC(=O)[C@H](Cc1ccccc1)NC(=O)CNC(=O)[C@@H](C)NC(=O)[C@@H](N)Cc1ccc(O)cc1)C(=O)N[C@@H](Cc1c[nH]c2ccccc12)C(=O)OCc1ccccc1 [TY014] (HELM PEPTIDE1{Y.[dA].G.F.F.P.L.W.[c1ccc(CO[*:1])cc1]}$$$$V2.0; N-terminus assumed)
- Ki [3]: 11.5 nM
- Emax ([4]; Table 39, read-out: GTP binding hDOR Emax): 137%
- Emax ([5]; Table 39, read-out: GTP binding rMOR Emax): 72.3%

Structure (SMILES): C[C@@H](NC(=O)[C@@H](N)Cc1ccc(O)cc1)C(=O)NCC(=O)N[C@@H](Cc1ccccc1)C(=O)N1CCC[C@H]1C(=O)N[C@@H](Cc1c[nH]c2ccccc12)C(=O)OCc1cc(C(F)(F)F)cc(C(F)(F)F)c1 [NP39] (HELM PEPTIDE1{Y.[dA].G.F.P.W.[FC(F)(F)c1cc(CO[*:1])cc(C(F)(F)F)c1]}$$$$V2.0; N-terminus assumed)
- Ki [1]: 0.1 nM
- IC50 (μ opioid receptors (GPI); [10]): 259 nM

Structure (SMILES): C[C@@H](NC(=O)[C@@H](N)Cc1ccc(O)cc1)C(=O)NCC(=O)N[C@@H](Cc1ccccc1)C(=O)NCCCC(=O)N[C@@H](Cc1c[nH]c2ccccc12)C(=O)OCc1cc(C(F)(F)F)cc(C(F)(F)F)c1 [NP34] (HELM PEPTIDE1{Y.[dA].G.F.[O=C(CCCN[*:1])[*:2]].W.[FC(F)(F)c1cc(CO[*:1])cc(C(F)(F)F)c1]}$$$$V2.0; N-terminus assumed)
- Ki [1]: 0.001 nM
- EC50 [4, 7]: 16.5 nM
- Emax [4, 8]: 40%
- EC50 ([5]; Table 32): 17.4 nM
- Emax [5, 9]: 27%
- IC50 (δ opioid receptors (MVD)): 67.9 nM
- IC50 (μ opioid receptors (GPI); [10]): 200 nM
- Kb [2, 11]: 0.96 nM

Structure (SMILES): C[C@@H](NC(=O)[C@@H](N)Cc1ccc(O)cc1)C(=O)NCC(=O)N[C@@H](Cc1ccccc1)C(=O)NC(C)(C)C(=O)N[C@@H](Cc1c[nH]c2ccccc12)C(=O)OCc1cc(C(F)(F)F)cc(C(F)(F)F)c1 [NP41] (HELM PEPTIDE1{Y.[dA].G.F.[Aib].W.[FC(F)(F)c1cc(CO[*:1])cc(C(F)(F)F)c1]}$$$$V2.0; N-terminus assumed)
- Ki (rat NK1 (rNK1) receptor; Affinity (Ki, nM) rNK1, Table 32): 3.4 nM
- Ki [1]: 0.008 nM
- EC50 [4, 7]: 37.7 nM
- Emax [4, 8]: 65%
- EC50 ([5]; Table 32): 105 nM
- Emax [5, 9]: 36%
- IC50 (δ opioid receptors (MVD)): 36.2 nM
